{
  "source": "patent US20240261271A1",
  "about": "“APPLICATION OF HYDRONIDONE IN PREPARATION OF DRUG FOR TREATING OR PREVENTING CHRONIC HEPATITIS B WITH LIVER FIBROSIS” (priority 2021, published 2024)",
  "key": {"[1]": {"system": "liver stiffness in chronic hepatitis B with hepatic fibrosis", "assay": "Phase II clinical study: liver transient elastography LSM (kPa)", "assay_type": "in vivo, human", "details": "FAS, after 52 weeks of treatment", "experimental": "(§1) This is a randomized, double-blind, placebo-controlled, multicenter, and dose-finding phase II clinical study with foundational treatment. In the clinical trial, three different dose test groups and a placebo control group were set on the basis of the entecavir capsule antiviral treatment, and the planned sample amount of each group was 60 cases, totaling 240 cases. The three dose test groups were 180 mg group, 270 mg group, and 360 mg group, respectively. The proportion of each test group to the control group was 1:1:1:1, and the cases were distributed randomly. […] Negative conversion rate of HBV DNA after treatment between the groups was compared using CMH-λ2 test or Fisher's exact probability method. • 2. Liver tissue elasticity reduction after treatment between the groups was compared using Kruskal-Wallis H test. • 3. […] The recovery rate of the liver function index after treatment between the groups was compared using CMH-λ2 test or Fisher's exact probability method, and the found values of each index between the groups were compared using variance analysis or Kruskal-Wallis H test."}, "[2]": {"system": "liver tissue inflammation", "assay": "Phase II clinical study: liver tissue inflammation grading", "assay_type": "in vivo, human", "details": "after 52 weeks of treatment", "experimental": "as §1"}, "HBV DNA": {"system": "HBV DNA", "assay": "Phase II clinical study: negative conversion rate of HBV DNA", "assay_type": "in vivo, human", "details": "for proportion of the subjects with HBV DNA substantially converted to negative: after 52 weeks of treatment, with entecavir", "experimental": "as §1"}, "[3]": {"system": "ALT (alanine aminotransferase)", "assay": "Phase II clinical study: ALT index of liver function", "assay_type": "in vivo, human", "details": "FAS, after 52 weeks of treatment", "experimental": "as §1"}, "[4]": {"assay": "Phase II clinical study: safety (adverse events, adverse effects, SAE)", "assay_type": "in vivo", "details": "180, 270 and 360 mg groups vs placebo, 52 weeks, adverse effects and SAE incidence rates not statistically different", "source_text": "Safety indexes: vital signs, laboratory indexes, adverse events/adverse effects, and the like.\nAll cases that had been randomized, used the study drug at least once, and had safety evaluation data after medication, constitute the safety population for this study.\nSafety indexes include adverse events/adverse effects, laboratory indexes, physical examinations, and the like. • 1. The incidence rates of the adverse events/adverse effects of each group were compared using CMH-λ2 test or Fisher's exact probability method, and the relative frequency and severity of all the adverse events in the test, the relationship with the drug, the treatment, the outcome, and the like were described in a table. • 2. The physical examinations were described in a table for normal/abnormal changes after the experiment. • 3. The laboratory indexes were described in a table for normal/abnormal changes, abnormal exacerbation, and the like before and after the test, and the relationship between the laboratory indexes and the test drug was evaluated. The quantitative indexes were statistically described for each time point measured, the variation inside the groups was compared using Wilcoxon signed rank test, and the variation between the groups was compared using Kruskal-Wallis H test."}},
  "data": [
    {"smiles": "Cc1ccc(=O)n(-c2ccc(O)cc2)c1", "note": "[hydronidone]", "values": [
      {"measurement": "mean decline rate (standard deviation) of the liver transient elastography LSM (kPa)", "setting": "[1]; 180 mg group", "value": 18.30, "unit": "%"},
      {"measurement": "mean decline rate (standard deviation) of the liver transient elastography LSM (kPa)", "setting": "[1]; 270 mg group", "value": 24.62, "unit": "%"},
      {"measurement": "mean decline rate (standard deviation) of the liver transient elastography LSM (kPa)", "setting": "[1]; 360 mg group", "value": 18.98, "unit": "%"},
      {"measurement": "proportion of the subjects with the liver tissue inflammation ameliorated", "setting": "[2]; 180 mg group", "value": "21 (58.33%) n(%)"},
      {"measurement": "proportion of the subjects with the liver tissue inflammation ameliorated", "setting": "[2]; 270 mg group", "value": "20 (57.14%) n(%)"},
      {"measurement": "proportion of the subjects with the liver tissue inflammation ameliorated", "setting": "[2]; 360 mg group", "value": "19 (55.88%) n(%)"},
      {"measurement": "proportion of the subjects with HBV DNA substantially converted to negative", "setting": "HBV DNA; 180 mg group", "value": "34 (94.44%) n(%)"},
      {"measurement": "proportion of the subjects with HBV DNA substantially converted to negative", "setting": "HBV DNA; 270 mg group", "value": "34 (97.14%) n(%)"},
      {"measurement": "proportion of the subjects with HBV DNA substantially converted to negative", "setting": "HBV DNA; 360 mg group", "value": "32 (94.12%) n(%)"},
      {"measurement": "influence on the reduction of the virus titer by entecavir and the ALT recovery", "setting": "HBV DNA; each hydronidone test group, 52 weeks", "value": "no influence"},
      {"measurement": "mean (standard deviation) of variation of the ALT index compared with the baseline", "setting": "[3]; 180 mg group", "value": "44.71 (53.50)"},
      {"measurement": "proportion of the subjects with ALT indexes determined to turn normal from abnormal (baseline)", "setting": "[3]; 180 mg group", "value": "15 (78.95%) n(%)"},
      {"measurement": "mean (standard deviation) of variation of the ALT index compared with the baseline", "setting": "[3]; 270 mg group", "value": "66.47 (78.13)"},
      {"measurement": "proportion of the subjects with ALT indexes determined to turn normal from abnormal (baseline)", "setting": "[3]; 270 mg group", "value": "18 (85.71%) n(%)"},
      {"measurement": "mean (standard deviation) of variation of the ALT index compared with the baseline", "setting": "[3]; 360 mg group", "value": "43.58 (59.87)"},
      {"measurement": "proportion of the subjects with ALT indexes determined to turn normal from abnormal (baseline)", "setting": "[3]; 360 mg group", "value": "16 (88.89%) n(%)"},
      {"measurement": "safety", "setting": "[4]", "value": "good"}
    ]}
  ]
}
